In patent US9884818B2, “Sulphamoylpyrrolamide derivatives and the use thereof as medicaments for the treatment of hepatitis B” (Janssen Sciences Ireland UC, priority 2013, dated 2018):

Legend:
HBV [1] = assay: Anti-HBV activity, HepG2.117 inducibly HBV producing cell line (Tet-off), intracellular HBV DNA by realtime PCR; type: cell-based; conditions: Hepatitis B virus, HepG2.117, 72 h, HepG2.117 cells, 3 days of treatment, intracellular HBV DNA; read-out: HepG2 117 EC50
HBV [2] = assay: Anti-HBV activity, HepG2.2.15 stable transfected cell line, HBV DNA from secreted virions by realtime PCR; type: cell-based; conditions: Hepatitis B virus, HepG2.2.15, 144 h, HepG2.2.15 cells, 6 days of treatment, HBV DNA from secreted virions; read-out: HepG2 2.15 EC50
[3] = Cytotoxicity in HepG2 cells, Resazurin viability assay; conditions: human, HepG2 cells, HepG2 4 days CC50 (μM), incubated for 4 days, Resazurin assay

Row | SMILES | EC50 (HBV [1]) | EC50 (HBV [2]) | CC50 at 4 days [3]
1 | Cn1cc(S(=O)(=O)NC2(C(F)(F)F)CCOCC2)cc1C(=O)Nc1ccc(F)c(Cl)c1F [Compound 258, N-(3-chloro-2,4-difluoro-phenyl)-1-methyl-4-[[1-(trifluoromethyl)-tetrahydropyran-4-yl]sulfamoyl]-1H-pyrrole-2-carboxamide] | 20 nM | 30 nM | > 25 µM
2 | CC[C@@H](NS(=O)(=O)c1cn(C)c(C(=O)Nc2ccc(F)c(C#N)c2)c1F)C(F)(F)F [Compound 288, N-(3-cyano-4-fluoro-phenyl)-3-fluoro-1-methyl-4-[[(1R)-1-(trifluoro-methyl)propyl]sulfamoyl]pyrrole-2-carboxamide] | 10 nM | 7 nM | > 25 µM
3 | Cc1c(S(=O)(=O)N[C@H](C)C(F)(F)F)c(C#N)c(C(=O)Nc2ccc(F)c(C#N)c2)n1C [Compound 316, 3-cyano-N-(3-cyano-4-fluoro-phenyl)-1,5-dimethyl-4-[[(1R)-2,2,2-trifluoro-1-methyl-ethyl]sulfamoyl]pyrrole-2-carboxamide] | 50 nM | 50 nM | > 25 µM
4 | Cn1cc(S(=O)(=O)NC2(C)COC2)cc1C(=O)Nc1cccc(C#N)c1 [Compound 55, N-(3-cyanophenyl)-1-methyl-4-[(3-methyloxetan-3-yl)sulfamoyl]pyrrole-2-carboxamide] | 110 nM | 210 nM | > 25 µM
5 | Cc1c(S(=O)(=O)N[C@H](C)C(F)(F)F)cc(C(=O)Nc2ccc(F)c(Cl)c2)n1C [Compound 138, N-(3-Chloro-4-fluorophenyl)-1,5-dimethyl-4-{[(1R)-2,2,2-trifluoro-1-methylethyl]sulfamoyl}-1H-pyrrole-2-carboxamide] | 30 nM | 100 nM | > 25 µM
6 | C[C@@H](NS(=O)(=O)c1cn(C)c(C(=O)Nc2ccc(F)c(C#N)c2)c1C#N)C(F)(F)F [Compound 293, 3-cyano-N-(3-cyano-4-fluoro-phenyl)-1-methyl-4-[[(1R)-2,2,2-trifluoro-1-methyl-ethyl]sulfamoyl]pyrrole-2-carboxamide] | 50 nM | 20 nM | > 25 µM
7 | CC(C)NS(=O)(=O)c1cn(C)c(C(=O)Nc2ccc(F)c(C#N)c2F)c1F [Compound 231, N-(3-Cyano-2,4-difluorophenyl)-3-fluoro-1-methyl-4-[(1-methyl-ethyl)sulfamoyl]-1H-pyrrole-2-carboxamide] | 30 nM | 40 nM | > 25 µM
8 | Cn1cc(S(=O)(=O)NC2(C)CC(F)(F)C2)c(F)c1C(=O)Nc1ccc(F)c(C#N)c1 [Compound 187, N-(3-Cyano-4-fluorophenyl)-4-[(3,3-difluoro-1-methylcyclobutyl)sulfamoyl]-3-fluoro-1-methyl-1H-pyrrole-2-carboxamide] | 6 nM | 8 nM | > 25 µM
9 | Cc1c(F)ccc(NC(=O)c2cc(S(=O)(=O)NC3(C)COC3)cn2C)c1F [Compound 85, N-(2,4-Difluoro-3-methylphenyl)-1-methyl-4-[(3-methyloxetan-3-yl)sulfamoyl]-1H-pyrrole-2-carboxamide] | 50 nM | 30 nM | > 25 µM
10 | CCn1cc(S(=O)(=O)NC(C)C)cc1C(=O)Nc1ccc(F)c(C)c1 [Compound 29, 1-ethyl-N-(4-fluoro-3-methyl-phenyl)-4-(isopropylsulfamoyl)pyrrole-2-carboxamide] | 210 nM | 150 nM | > 25 µM
11 | Cc1cc(NC(=O)c2cc(S(=O)(=O)NC(C)(C)C)cn2C)cc(F)c1F [Compound 38, 4-(tert-butylsulfamoyl)-N-(3,4-difluoro-5-methyl-phenyl)-1-methyl-pyrrole-2-carboxamide] | 20 nM | 50 nM | > 25 µM
12 | Cn1cc(S(=O)(=O)NC2(C)COC2)c(F)c1C(=O)Nc1ccc(F)c(Br)c1 [Compound 106, N-(3-Bromo-4-fluorophenyl)-3-fluoro-1-methyl-4-[(3-methyloxetan-3-yl)sulfamoyl]-1H-pyrrole-2-carboxamide] | 10 nM | 10 nM | > 25 µM
13 | Cc1cc(NC(=O)c2cc(S(=O)(=O)N[C@H]3CCOC3)cn2C)cc(C)c1F [Compound 31, N-(4-fluoro-3,5-dimethyl-phenyl)-1-methyl-4-[[(3S)-tetrahydrofuran-3-yl]-sulfamoyl]pyrrole-2-carboxamide] | 390 nM | 130 nM | > 25 µM
14 | Cn1cc(S(=O)(=O)NC2(C)COC2)cc1C(=O)Nc1cc(Cl)c(F)c(Cl)c1 [Compound 75, N-(3,5-Dichloro-4-fluorophenyl)-1-methyl-4-[(3-methyloxetan-3-yl)sulfamoyl]-1H-pyrrole-2-carboxamide] | 180 nM | 180 nM | > 25 µM
15 | C[C@@H](NS(=O)(=O)c1cn(C)c(C(=O)Nc2cccc(Br)c2)c1F)C(F)(F)F [Compound 280, N-(3-bromophenyl)-3-fluoro-1-methyl-4-[[(1R)-2,2,2-trifluoro-1-methyl-ethyl]sulfamoyl]pyrrole-2-carboxamide] | 60 nM | 5 nM | > 25 µM
16 | Cc1cc(NC(=O)c2cc(S(=O)(=O)NC(C)(C)C)cn2C)ccc1F [Compound 16, 4-(tert-butylsulfamoyl)-N-(4-fluoro-3-methyl-phenyl)-1-methyl-pyrrole-2-carboxamide] | 30 nM | 60 nM | > 25 µM
17 | Cn1cc(S(=O)(=O)NC2(C(F)(F)F)CCC2)c(Cl)c1C(=O)Nc1ccc(F)c(C#N)c1 [Compound 221, 3-Chloro-N-(3-cyano-4-fluorophenyl)-1-methyl-4-{[1-(trifluoro-methyl)cyclobutyl]sulfamoyl}-1H-pyrrole-2-carboxamide] | 6 nM | 7 nM | > 25 µM
18 | Cc1c(S(=O)(=O)NC2(C)COC2)cn(C)c1C(=O)Nc1ccc(F)c(C#N)c1 [Compound 152, N-3-Cyano-4-fluoromethyl-4-[(3-methyloxetan-3-yl)sulfamoyl]-1H-pyrrole-2-carboxamide] | 80 nM | 240 nM | > 25 µM
19 | CC(C)NS(=O)(=O)c1cn(C)c(C(=O)Nc2ccc(F)c(F)c2F)c1F [Compound 233, 3-Fluoro-1-methyl-4-[(1-methylethyl)sulfamoyl]-N-(2,3,4-trifluorophenyl)-1H-pyrrole-2-carboxamide] | 160 nM | 90 nM | > 25 µM
20 | Cn1cc(S(=O)(=O)NCC(F)F)cc1C(=O)Nc1ccc(F)c(Cl)c1 [Compound 128, N-(3-Chloro-4-fluorophenyl)-4-[(2,2-difluoroethyl)sulfamoyl]-1-meth-1H-pyrrole-2-carboxamide] | 90 nM | 150 nM | > 25 µM
21 | CCC(CC)(NS(=O)(=O)c1cc(C(=O)Nc2ccc(F)c(Cl)c2F)n(C)c1)C(F)(F)F [Compound 259, N-(3-chloro-2,4-difluoro-phenyl)-4-[[1-ethyl-1-(trifluoromethyl)-propyl]sulfamoyl]-1-methyl-1H-pyrrole-2-carboxamide] | 50 nM | 50 nM | > 25 µM
22 | C[C@@H](NS(=O)(=O)c1cn(C)c(C(=O)Nc2ccc(F)c(Cl)c2)c1Cl)C(F)(F)F [Compound 222, 3-Chloro-N-(3-chloro-4-fluorophenyl)-1-methyl-4-{[(1R)-2,2,2-trifluoro-1-methylethyl]sulfamoyl}-1H-pyrrole-2-carboxamide] | 9 nM | 4 nM | > 25 µM
23 | CC[C@@H](C)NS(=O)(=O)c1cc(C(=O)Nc2ccc(F)c(C)c2)n(C)c1 [Compound 6, N-(4-fluoro-3-methyl-phenyl)-1-methyl-4-[[(1R)-1-methylpropyl]-sulfamoyl]pyrrole-2-carboxamide] | 20 nM | 20 nM | > 25 µM
24 | Cn1cc(S(=O)(=O)NC2(C)COC2)cc1C(=O)Nc1ccc(F)c(Cl)c1F [Compound 121, N-(3-Chloro-2,4-difluorophenyl)-1-methyl-4-[(3-methyloxetan-3-yl)sulfamoyl]-1H-pyrrole-2-carboxamide] | 40 nM | 50 nM | > 25 µM
25 | Cc1c(S(=O)(=O)NC2(C)COC2)cn(C)c1C(=O)Nc1cc(F)c(F)c(Cl)c1 [Compound 201, N-(3-Chloro-4,5-difluorophenyl)-1,3-dimethyl-4-[(3-methyloxetan-3-yl)sulfamoyl]-1H-pyrrole-2-carboxamide] | 20 nM | 70 nM | > 25 µM
26 | C[C@@H](NS(=O)(=O)c1cn(C)c(C(=O)Nc2ccc(F)c(Cl)c2Cl)c1Cl)C(F)(F)F [Compound 277, 3-chloro-N-(2,3-dichloro-4-fluoro-phenyl)-1-methyl-4-[[(1R)-2,2,2-trifluoro-1-methyl-ethyl]sulfamoyl]pyrrole-2-carboxamide] | 40 nM | 30 nM | > 25 µM
27 | C[C@@H](NS(=O)(=O)c1cn(C)c(C(=O)Nc2cc(Cl)c(F)c(C#N)c2)c1F)C(F)(F)F [Compound 313, N-(3-chloro-5-cyano-4-fluoro-phenyl)-3-fluoro-1-methyl-4-[[(1R)-2,2,2-trifluoro-1-methyl-ethyl]sulfamoyl]pyrrole-2-carboxamide] | 50 nM | 20 nM | > 25 µM
28 | Cc1c(S(=O)(=O)N[C@H](C)C(F)(F)F)cc(C(=O)Nc2ccc(F)c(C(F)(F)F)c2)n1C [Compound 142, N-[4-Fluoro-3-(trifluoromethyl)phenyl]-1,5-dimethyl-4-{[(1R)-2,2,2-trifluoro-1-methylethyl]sulfamoyl}-1H-pyrrole-2-carboxamide] | 420 nM | 150 nM | > 25 µM
